Data published in PMC5681922, “Systemic Responses of Multidrug-Resistant Pseudomonas aeruginosa and Acinetobacter baumannii Following Exposure to the Antimicrobial Peptide Cathelicidin-BF Imply Multiple Intracellular Targets” (Frontiers in Cellular and Infection Microbiology, 2017).
Like-named read-outs stand apart in the source and are kept apart here. No end group written: not given here.

Key:
P. aeruginosa 1409 [1] = system: P. aeruginosa 1409
[2] = system: 293FT (human embryonic kidney cells); details: XTT, 24 h, serum-free DMEM
Method: (§1) Cell viability was measured using cell proliferation kit II (XTT) (Roche). Cells, including A549 (adenocarcinomic human alveolar basal epithelial cells), 293FT (human embryonic kidney cells) and L929 (murine fibroblast cells), were cultured in Dulbecco's […] (DMEM) supplemented with 10% fetal bovine serum, 100 U penicillin/mL, and 100 μg streptomycin/mL in a humidified 5% CO2 atmosphere at 37°C. After digestion with trypsin, the cells were diluted in serum-free DMEM without phenol red to a final concentration of 2 × 10^5 cell/mL, seeded in 96 well plates (100 μl/well) and cultured overnight until adhesion. Cathelicidin-BF dissolved in serum-free DMEM without phenol red was added to wells, and the plates were incubated for 24 h as previously described. Subsequent procedures were performed according to the kit. Briefly, XTT labeling reagent (sodium 3′-[1-(phenylaminocarbonyl)-3,4-tetrazolium]-bis-4-methoxy-6-nitro) benzene sulfonic acid hydrate) in Roswell Park Memorial Institute (RPMI) 1640 medium without phenol red was mixed with electron-coupling reagent PMS (N-methyl dibenzopyrazine methyl sulfate) at a volume ratio of 50:1 to make the working solution. Fifty microliters of the XTT labeling mixture was added to each well and incubated at the same conditions for 6 h. Absorbance [A492 nm-A690 nm] stands for the quantification of viable cells.
(§2) Figure 2 Cytotoxicity of cathelicidin-BF. Hemolysis and cell viability assays were conducted to test the cytotoxicity of cathelicidin-BF to mammalian cells.

[3] = system: L929 (murine fibroblast cells); details: 400 mg/L; XTT, 24 h, serum-free DMEM
Method: as §1, §2

[4] = system: A549 (adenocarcinomic human alveolar basal epithelial cells); details: 400 mg/L; XTT, 24 h, serum-free DMEM
Method: as §1, §2

P. aeruginosa 1409 [5] = experiment: Membrane permeabilization assay (propidium iodide); assay type: cell-based, Pseudomonas aeruginosa; details: 1 h at 25°C in LB, then PI 10 μg/mL 30 min, fluorescence microscope
Method: Then, PI was added to a final concentration of 10 μg/mL. After 30 min of incubation at 25°C, the cells were washed 3 times with PBS and immediately imaged with a fluorescence microscope (Olympus, Japan) (Yu et al., [2015]).
Figure 3 Bacterial plasma membrane permeabilization assay of cathelicidin-BF. Cathelicidin-BF and levofloxacin were incubated with MDR P. aeruginosa in Luria-Bertani medium at final concentrations of 4 × MIC (minimal inhibitory concentration) or ¼ × MIC. After incubation at 25°C for 1 h, bacteria were collected by centrifugation at 3,000 × g for 5 min and resuspended with PBS. The DNA-binding fluorescent dye PI was added to a final concentration of 10 μg/mL. After 30 min incubation at 25°C, the cells were washed 3 times with PBS and immediately imaged using a fluorescence microscope.

[6] = treated vs untreated, iTRAQ, cathelicidin-BF change not categorized as differentially expressed

KFFRKLKKSVKKRAKEFFKKPRVIGVSIPF [cathelicidin-BF]
Pa-Ca/Pa-C (P. aeruginosa 1409 [1]; iTRAQ abundance ratio Pa-Cathelicidin/Pa-Control of protein Q9HYV7 (GN=PA3286)): 0.9022
Pa-Ca/Pa-C (P. aeruginosa 1409 [1]; iTRAQ abundance ratio Pa-Cathelicidin/Pa-Control of protein Q9HYZ3 (GN=apeB)): 1.0565
Pa-Ca/Pa-C (P. aeruginosa 1409 [1]; iTRAQ abundance ratio Pa-Cathelicidin/Pa-Control of protein Q9HZD8 (GN=PA3070)): 0.9912
Pa-Ca/Pa-C (P. aeruginosa 1409 [1]; iTRAQ abundance ratio Pa-Cathelicidin/Pa-Control of protein Q9HZF4 (GN=PA3054)): 0.9528
Pa-Ca/Pa-C (P. aeruginosa 1409 [1]; iTRAQ abundance ratio Pa-Cathelicidin/Pa-Control of protein Q9HZG0 (GN=rlmL)): 0.9995
Pa-Ca/Pa-C (P. aeruginosa 1409 [1]; iTRAQ abundance ratio Pa-Cathelicidin/Pa-Control of protein Q9HZG4 (GN=PA3044)): 1.123
Pa-Ca/Pa-C (P. aeruginosa 1409 [1]; iTRAQ abundance ratio Pa-Cathelicidin/Pa-Control of protein Q9HZM6 (GN=ptpA)): 0.8326
Pa-Ca/Pa-C (P. aeruginosa 1409 [1]; iTRAQ abundance ratio Pa-Cathelicidin/Pa-Control of protein Q9HZN0 (GN=PA2974)): 1.056
Pa-Ca/Pa-C (P. aeruginosa 1409 [1]; iTRAQ abundance ratio Pa-Cathelicidin/Pa-Control of protein Q9HZY0 (GN=mttC)): 1.0109
Pa-Ca/Pa-C (P. aeruginosa 1409 [1]; iTRAQ abundance ratio Pa-Cathelicidin/Pa-Control of protein Q9I0F5 (GN=PA2683)): 1.0558
Pa-Ca/Pa-C (P. aeruginosa 1409 [1]; iTRAQ abundance ratio Pa-Cathelicidin/Pa-Control of protein Q9I0I2 (GN=PA2656)): 1.043
Pa-Ca/Pa-C (P. aeruginosa 1409 [1]; iTRAQ abundance ratio Pa-Cathelicidin/Pa-Control of protein Q9I0Q7 (GN=kynA)): 0.9342
Pa-Ca/Pa-C (P. aeruginosa 1409 [1]; iTRAQ abundance ratio Pa-Cathelicidin/Pa-Control of protein Q9I0R5 (GN=PA2571)): 0.9216
Pa-Ca/Pa-C (P. aeruginosa 1409 [1]; iTRAQ abundance ratio Pa-Cathelicidin/Pa-Control of protein Q9I0Z9 (GN=PA2483)): 0.8854
Pa-Ca/Pa-C (P. aeruginosa 1409 [1]; iTRAQ abundance ratio Pa-Cathelicidin/Pa-Control of protein Q9I1H9 (GN=PA2296)): 0.9095
Pa-Ca/Pa-C (P. aeruginosa 1409 [1]; iTRAQ abundance ratio Pa-Cathelicidin/Pa-Control of protein Q9I1I4 (GN=PA2291)): 1.111
Pa-Ca/Pa-C (P. aeruginosa 1409 [1]; iTRAQ abundance ratio Pa-Cathelicidin/Pa-Control of protein Q9I1M1 (GN=bkdA2)): 1.005
Pa-Ca/Pa-C (P. aeruginosa 1409 [1]; iTRAQ abundance ratio Pa-Cathelicidin/Pa-Control of protein Q9I2G3 (GN=PA1941)): 0.9926
Pa-Ca/Pa-C (P. aeruginosa 1409 [1]; iTRAQ abundance ratio Pa-Cathelicidin/Pa-Control of protein Q9I2R3 (GN=PA1832)): 0.9008
Pa-Ca/Pa-C (P. aeruginosa 1409 [1]; iTRAQ abundance ratio Pa-Cathelicidin/Pa-Control of protein Q9I2T1 (GN=gloB)): 0.964
Pa-Ca/Pa-C (P. aeruginosa 1409 [1]; iTRAQ abundance ratio Pa-Cathelicidin/Pa-Control of protein Q9I2Y1 (GN=pabB)): 0.998
Pa-Ca/Pa-C (P. aeruginosa 1409 [1]; iTRAQ abundance ratio Pa-Cathelicidin/Pa-Control of protein Q9I3F3 (GN=tusA)): 0.8155
Pa-Ca/Pa-C (P. aeruginosa 1409 [1]; iTRAQ abundance ratio Pa-Cathelicidin/Pa-Control of protein Q9I3J6 (GN=PA1517)): 1.049
Pa-Ca/Pa-C (P. aeruginosa 1409 [1]; iTRAQ abundance ratio Pa-Cathelicidin/Pa-Control of protein Q9I3L0 (GN=gcl)): 0.9901
Pa-Ca/Pa-C (P. aeruginosa 1409 [1]; iTRAQ abundance ratio Pa-Cathelicidin/Pa-Control of protein Q9I4B6 (GN=PA1222)): 0.8647
Pa-Ca/Pa-C (P. aeruginosa 1409 [1]; iTRAQ abundance ratio Pa-Cathelicidin/Pa-Control of protein Q9I4H9 (GN=PA1158)): 1.038
Pa-Ca/Pa-C (P. aeruginosa 1409 [1]; iTRAQ abundance ratio Pa-Cathelicidin/Pa-Control of protein Q9I4N6 (GN=fliS)): 1.132
Pa-Ca/Pa-C (P. aeruginosa 1409 [1]; iTRAQ abundance ratio Pa-Cathelicidin/Pa-Control of protein Q9I4N9 (GN=PA1090)): 1.038
Pa-Ca/Pa-C (P. aeruginosa 1409 [1]; iTRAQ abundance ratio Pa-Cathelicidin/Pa-Control of protein Q9I4R3 (GN=PA1061)): 0.9798
Pa-Ca/Pa-C (P. aeruginosa 1409 [1]; iTRAQ abundance ratio Pa-Cathelicidin/Pa-Control of protein Q9I5M1 (GN=migA)): 0.9698
Pa-Ca/Pa-C (P. aeruginosa 1409 [1]; iTRAQ abundance ratio Pa-Cathelicidin/Pa-Control of protein Q9I5U7 (GN=apaH)): 1.014
Pa-Ca/Pa-C (P. aeruginosa 1409 [1]; iTRAQ abundance ratio Pa-Cathelicidin/Pa-Control of protein Q9I5V3 (GN=cca)): 0.7612
Pa-Ca/Pa-C (P. aeruginosa 1409 [1]; iTRAQ abundance ratio Pa-Cathelicidin/Pa-Control of protein Q9I6B3 (GN=trmB)): 1.011
Pa-Ca/Pa-C (P. aeruginosa 1409 [1]; iTRAQ abundance ratio Pa-Cathelicidin/Pa-Control of protein Q9I7A7 (GN=PA0020)): 1.051
Pa-Ca/Pa-C (P. aeruginosa 1409 [1]; iTRAQ abundance ratio Pa-Cathelicidin/Pa-Control of protein Q9I022 (GN=PA2821)): 0.7721
Pa-Ca/Pa-C (P. aeruginosa 1409 [1]; iTRAQ abundance ratio Pa-Cathelicidin/Pa-Control of protein Q9I164 (GN=PA2417)): 1.295
Pa-Ca/Pa-C (P. aeruginosa 1409 [1]; iTRAQ abundance ratio Pa-Cathelicidin/Pa-Control of protein Q9I233 (GN=PA2082)): 0.8885
Pa-Ca/Pa-C (P. aeruginosa 1409 [1]; iTRAQ abundance ratio Pa-Cathelicidin/Pa-Control of protein Q9I300 (GN=PA1737)): 1.149
Pa-Ca/Pa-C (P. aeruginosa 1409 [1]; iTRAQ abundance ratio Pa-Cathelicidin/Pa-Control of protein Q9I342 (GN=mtnB)): 1.093
Pa-Ca/Pa-C (P. aeruginosa 1409 [1]; iTRAQ abundance ratio Pa-Cathelicidin/Pa-Control of protein Q9I468 (GN=cobC)): 0.7767
Pa-Ca/Pa-C (P. aeruginosa 1409 [1]; iTRAQ abundance ratio Pa-Cathelicidin/Pa-Control of protein Q9I538 (GN=PA0919)): 0.9631
Pa-Ca/Pa-C (P. aeruginosa 1409 [1]; iTRAQ abundance ratio Pa-Cathelicidin/Pa-Control of protein Q9I655 (GN=creB)): 0.9495
Pa-Ca/Pa-C (P. aeruginosa 1409 [1]; iTRAQ abundance ratio Pa-Cathelicidin/Pa-Control of protein Q9I656 (GN=PA0462)): 1.049
Pa-Ca/Pa-C (P. aeruginosa 1409 [1]; iTRAQ abundance ratio Pa-Cathelicidin/Pa-Control of protein Q9I673 (GN=PA0444)): 0.9127
Pa-Ca/Pa-C (P. aeruginosa 1409 [1]; iTRAQ abundance ratio Pa-Cathelicidin/Pa-Control of protein Q9I688 (GN=PA0429)): 1.007
Pa-Ca/Pa-C (P. aeruginosa 1409 [1]; iTRAQ abundance ratio Pa-Cathelicidin/Pa-Control of protein Q9I700 (GN=bauA)): 0.9294
Pa-Ca/Pa-C (P. aeruginosa 1409 [1]; iTRAQ abundance ratio Pa-Cathelicidin/Pa-Control of protein Q9X6V8 (GN=PA3998)): 1.122
Pa-Ca/Pa-C (P. aeruginosa 1409 [1]; iTRAQ abundance ratio Pa-Cathelicidin/Pa-Control of protein Q51426 (GN=ruvB)): 1.14
expression of protein Q9HTV3 (3-octaprenyl-4-hydroxybenzoate carboxy-lyase) (P. aeruginosa 1409 [1]; [6]): downregulated
expression of protein Q9I298 (putative 3-methylglutaconyl-ConA hydratase) (P. aeruginosa 1409 [1]; [6]): downregulated
expression of protein Q9I5V3 (multifunctional CCA protein) (P. aeruginosa 1409 [1]; treated vs untreated, iTRAQ, levofloxacin change not categorized as differentially expressed): downregulated
concentrations at which proliferation of 293FT cells was inhibited [2]: > 50 µg/mL
effect on L929 cells [3]: intact
effect on A549 cells [4]: intact
integrity of bacterial membranes, PI staining at 4 × MIC (P. aeruginosa 1409 [5]; 4 × MIC (cathelicidin-BF 32 μg/mL, levofloxacin 64 μg/mL)): showed red fluorescence
integrity of bacterial membranes, PI staining at ¼ × MIC (P. aeruginosa 1409 [5]; ¼ × MIC (cathelicidin-BF 2 μg/mL, levofloxacin 4 μg/mL)): no red dyes were detected
